In patent US20080200448A1, “New Pyridine Analogues VIII 518” (ASTRAZENECA AB, priority 2007, published 2008):

Each compound was assayed against T1, P2Y12 receptor (Homo sapiens, UniProt Q9H244) (assay: Functional inhibition of 2-Me-S-ADP induced P2Y12 signalling (35S-GTPγS binding, cell membranes)). Settings: 35S-GTPγS assay, membranes, EC80 concentration of 2-methyl-thio-adenosine diphosphate, 30° C. for 45 min; read-out: GTPγS (IC50 μM).
T1 construct: expressed in transfected cells; host or cells: CHO cells (membrane preparation)
T1 sequence (Q9H244 whole entry): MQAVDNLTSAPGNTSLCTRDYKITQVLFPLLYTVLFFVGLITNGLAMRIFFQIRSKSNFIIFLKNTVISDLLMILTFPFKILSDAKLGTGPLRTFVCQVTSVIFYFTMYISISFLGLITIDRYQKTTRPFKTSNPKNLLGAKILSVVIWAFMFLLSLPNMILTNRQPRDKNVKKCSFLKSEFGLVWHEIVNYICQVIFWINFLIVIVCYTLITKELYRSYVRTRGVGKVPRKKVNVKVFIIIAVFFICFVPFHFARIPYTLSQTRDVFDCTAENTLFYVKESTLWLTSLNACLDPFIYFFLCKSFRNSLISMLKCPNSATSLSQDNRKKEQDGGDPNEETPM
Format: biochemical
Experimental: Functional inhibition of- the P2Y12 receptor can be measured by in vitro assays using cell membranes from P2Y12 transfected CHO-cells, the methodology is indicated below.
Functional inhibition of 2-Me-S-ADP induced P2Y12 signalling: 5 μg of membranes were diluted in 200 μl of 200 mM NaCl, 1 mM MgCl2, 50 mM HEPES (pH 7.4), 0.01% BSA, 30 μg/ml saponin and 10 μM GDP. To this was added an EC80 concentration of agonist (2-methyl-thio-adenosine diphosphate), the required concentration of test compound and 0.1 μCi ^35S-GTPγS. The reaction was allowed to proceed at 30° C. for 45 min. Samples were then transferred on to GF/B filters using a cell harvester and washed with wash buffer (50 mM Tris (pH 7.4), 5 mM MgCl2, 50 mM NaCl). Filters were then covered with scintilant and counted for the amount of ^35S-GTPγS retained by the filter. Maximum activity was that determined in the presence of the agonist and minimum activity in the absence of the agonist following subtraction of the value determined for non-specific activity. The effect of compounds at various concentrations was plotted according to the equation
y=A+((B−A)/(1+((C/x)̂D)))
and IC50 estimated where A is the bottom plateau of the curve i.e. the final minimum y value B is the top of the plateau of the curve i.e. the final maximum y value C is the x value at the middle of the curve. This represents the log EC50 value when A+B=100 D is the slope factor. x is the original known x values. Y is the original known y values.

**Q.** With CCOC(=O)c1cc(Cl)c(N2CCC(C(=O)NS(=O)(=O)N(C)c3ccccc3)CC2)nc1CN1CCCC1=O [Example 93, Ethyl 5-chloro-6-[4-({[methyl(phenyl)amino]sulfonyl}carbamoyl)piperidin-1-yl]-2-[(2-oxopyrrolidin-1-yl)methyl]nicotinate] as the compound, how does the IC50 read?
**A.** Its IC50 is 0.062 µM.

**Q.** How did the IC50 turn out when CCOC(=O)c1cc(C#N)c(N2CCC(C(=O)NS(=O)(=O)Cc3ccccc3)CC2)nc1CSCC(=O)N(C)C [Example 123, Ethyl 6-{4-[(benzylsulfonyl)carbamoyl]piperidin-1-yl}-5-cyano-2-({[2-(dimethylamino)-2-oxoethyl]thio}methyl)nicotinate] was run?
**A.** The IC50 was 0.057 µM.

**Q.** Which IC50 does the source give for CCOC(=O)c1cc(Cl)c(N2CCC(C(=O)NS(=O)(=O)N(C)c3ccc(F)cc3)CC2)nc1CN1CCCC1=O [Example 92, Ethyl 5-chloro-6-[4-({[(4-fluorophenyl)(methyl)amino]sulfonyl}carbamoyl)piperidin-1-yl]-2-[(2-oxopyrrolidin-1-yl)methyl]nicotinate] here?
**A.** The IC50 was 0.077 µM.

**Q.** Which IC50 does the source give for CCOC(=O)c1cc(C#N)c(N2CCC(C(=O)NS(=O)(=O)Cc3ccc(SC(F)(F)F)cc3)CC2)nc1CN1CCCC1=O [Example 66, Ethyl 5-cyano-2-[(2-oxopyrrolidin-1-yl)methyl]-6-{4-[({4-[(trifluoromethyl)thio]benzyl}sulfonyl)carbamoyl]piperidin-1-yl}nicotinate] here?
**A.** Its IC50 is 0.033 µM.

**Q.** With CCCOC(=O)c1cc(Cl)c(N2CCC(C(=O)NS(=O)(=O)N(C)c3ccc(F)cc3)CC2)nc1CN1CCCC1=O [Example 95, Propyl 5-chloro-6-[4-({[(4-fluorophenyl)(methyl)amino]sulfonyl}carbamoyl)piperidin-1-yl]-2-[(2-oxopyrrolidin-1-yl)methyl]nicotinate] as the compound, how does the IC50 read?
**A.** Its IC50 is 0.155 µM.

**Q.** For CC(C)OC(=O)c1cc(C#N)c(N2CCC(C(=O)NS(=O)(=O)Cc3ccccc3)CC2)nc1CN1CCCCC1=O [Example 70, Isopropyl 6-{4-[(benzylsulfonyl)carbamoyl]piperidin-1-yl}-5-cyano-2-[(2-oxopiperidin-1-yl)methyl]nicotinate], which IC50 is on record?
**A.** Its IC50 is 0.102 µM.

**Q.** With CCOC(=O)c1cc(C#N)c(N2CCC(C(=O)NS(=O)(=O)Cc3ccccc3)CC2)nc1CN1CCCC1=O [Example 33, Ethyl 6-{4-[(benzylsulfonyl)carbamoyl]piperidin-1-yl}-5-cyano-2-[(2-oxopyrrolidin-1-yl)methyl]nicotinate] as the compound, how does the IC50 read?
**A.** Its IC50 is 0.0097 µM.

**Q.** CCOC(=O)c1cc(C#N)c(N2CCC(C(=O)NS(=O)(=O)Cc3ccc(F)cc3)CC2)nc1CN1CCCC1=O [Example 40, Ethyl 5-cyano-6-(4-{[(4-fluorobenzyl)sulfonyl]carbamoyl}piperidin-1-yl)-2-[(2-oxopyrrolidin-1-yl)methyl]nicotinate] was tested. Which IC50 did it give?
**A.** The IC50 was 0.025 µM.

**Q.** CCOC(=O)c1cc(C#N)c(N2CCC(C(=O)NS(=O)(=O)Cc3ccc(OC)cc3)CC2)nc1CN1CCCCC1=O [Example 68, Ethyl 5-cyano-6-(4-{[(4-methoxybenzyl)sulfonyl]carbamoyl}piperidin-1-yl)-2-[(2-oxopiperidin-1-yl)methyl]nicotinate] was tested. Which IC50 did it give?
**A.** Its IC50 is 0.024 µM.

**Q.** Which IC50 does the source give for CCOC(=O)c1cc(C#N)c(N2CCC(C(=O)NS(=O)(=O)Cc3ccc(F)cc3F)CC2)nc1CN1CCCCC1=O [Example 67, Ethyl 5-cyano-6-(4-{[(2,4-difluorobenzyl)sulfonyl]carbamoyl}piperidin-1-yl)-2-[(2-oxopiperidin-1-yl)methyl]nicotinate] here?
**A.** The IC50 was 0.02 µM.

**Q.** Which IC50 does the source give for CCOC(=O)c1cc(C#N)c(N2CCC(C(=O)NS(=O)(=O)Cc3ccccc3)CC2)nc1OCC1CCO1 (stereo not shown) [Example 23, Ethyl 6-{4-[(benzylsulfonyl)carbamoyl]piperidin-1-yl}-5-cyano-2-(oxetan-2-ylmethoxy)nicotinate] here?
**A.** Its IC50 is 0.048 µM.

**Q.** For CCOC(=O)c1cc(C#N)c(N2CCC(C(=O)NS(=O)(=O)Cc3ccccc3)CC2)nc1CSCCNC(C)=O [Example 29, Ethyl 2-{[(2-acetamidoethyl)thio]methyl}-6-{4-[(benzylsulfonyl)carbamoyl]piperidin-1-yl}-5-cyanonicotinate], which IC50 is on record?
**A.** The IC50 was 0.033 µM.

**Q.** Which IC50 does the source give for CCOC(=O)c1cc(C#N)c(N2CCC(C(=O)NS(=O)(=O)Cc3ccccc3)CC2)nc1CN1CCCCC1=O [Example 56, Ethyl 6-{4-[(benzylsulfonyl)carbamoyl]piperidin-1-yl}-5-cyano-2-[(2-oxopiperidin-1-yl)methyl]nicotinate] here?
**A.** Its IC50 is 0.03 µM.

**Q.** With CCOC(=O)c1cc(C#N)c(N2CCC(C(=O)NS(=O)(=O)Cc3ccc(Cl)cc3Cl)CC2)nc1CN1CCCC1=O [Example 41, Ethyl 5-cyano-6-(4-{[(2,4-dichlorobenzyl)sulfonyl]carbamoyl}piperidin-1-yl)-2-[(2-oxopyrrolidin-1-yl)methyl]nicotinate] as the compound, how does the IC50 read?
**A.** Its IC50 is 0.016 µM.

**Q.** Which IC50 does the source give for CCOC(=O)c1cc(C#N)c(N2CCC(C(=O)NS(=O)(=O)Cc3ccc(C(F)(F)F)cc3)CC2)nc1CN1CCCC1=O [Example 35, Ethyl 5-cyano-2-[(2-oxopyrrolidin-1-yl)methyl]-6-[4-({[4-(trifluoromethyl)benzyl]sulfonyl}carbamoyl)piperidin-1-yl]nicotinate] here?
**A.** The IC50 was 0.0097 µM.

**Q.** Which IC50 does the source give for CC1CCC(CS(=O)(=O)NC(=O)C2CCN(c3nc(CN4CCCC4=O)c(C(=O)OC(C)C)cc3C#N)CC2)CC1 (stereo not shown) [Example 54, Isopropyl 5-cyano-6-[4-({[(4-methylcyclohexyl)methyl]sulfonyl}carbamoyl)piperidin-1-yl]-2-[(2-oxopyrrolidin-1-yl)methyl]nicotinate] here?
**A.** The IC50 was 0.104 µM.

**Q.** How did the IC50 turn out when CCOC(=O)c1cc(C#N)c(N2CCC(C(=O)NS(=O)(=O)Cc3ccccc3)CC2)nc1CS(C)(=O)=O [Example 12, Ethyl 6-{4-[(benzylsulfonyl)carbamoyl]piperidin-1-yl}-5-cyano-2-[(methylsulfonyl)methyl]nicotinate] was run?
**A.** The IC50 was 0.129 µM.

**Q.** For CC(C)OC(=O)c1cc(C#N)c(N2CCC(C(=O)NS(=O)(=O)N(C)c3ccccc3)CC2)nc1CN1CCCC1=O [Example 78, Isopropyl 5-cyano-6-[4-({[methyl(phenyl)amino]sulfonyl}carbamoyl)piperidin-1-yl]-2-[(2-oxopyrrolidin-1-yl)methyl]nicotinate], which IC50 is on record?
**A.** Its IC50 is 0.021 µM.

**Q.** CCOC(=O)c1cc(C#N)c(N2CC(C(=O)NS(=O)(=O)Cc3ccccc3)C2)nc1CN1CCCC1=O [Example 90, Ethyl 6-{3-[(benzylsulfonyl)carbamoyl]azetidin-1-yl}-5-cyano-2-[(2-oxopyrrolidin-1-yl)methyl]nicotinate] was tested. Which IC50 did it give?
**A.** The IC50 was 0.019 µM.

**Q.** With CCSC(=O)c1cc(C#N)c(N2CCC(C(=O)NS(=O)(=O)Cc3ccc(C)cc3)CC2)nc1CN1CCCC1=O [Example 98, S-Ethyl 5-cyano-6-(4-{[(4-methylbenzyl)sulfonyl]carbamoyl}piperidin-1-yl)-2-[(2-oxopyrrolidin-1-yl)methyl]pyridine-3-carbothioate] as the compound, how does the IC50 read?
**A.** Its IC50 is 4.53 µM.

**Q.** Which IC50 does the source give for CCOC(=O)c1cc(C#N)c(N2CCC(C(=O)NS(=O)(=O)Cc3ccc([Si](C)(C)C)cc3)CC2)nc1CN1CCCC1=O [Example 100, Ethyl 5-cyano-2-[(2-oxopyrrolidin-1-yl)methyl]-6-[4-({[4-(trimethylsilyl)benzyl]sulfonyl}carbamoyl)piperidin-1-yl]nicotinate] here?
**A.** Its IC50 is 0.138 µM.

**Q.** With CCOC(=O)c1cc(C#N)c(N2CCC(C(=O)NS(=O)(=O)Cc3ccc(C(C)C)cc3)CC2)nc1CN1CCCCC1=O [Example 69, Ethyl 5-cyano-6-(4-{[(4-isopropylbenzyl)sulfonyl]carbamoyl}piperidin-1-yl)-2-[(2-oxopiperidin-1-yl)methyl]nicotinate] as the compound, how does the IC50 read?
**A.** Its IC50 is 0.082 µM.

**Q.** CCOC(=O)c1cc(C#N)c(N2CCC(C(=O)NS(=O)(=O)Cc3ccccc3)CC2)nc1OCCN1CCCC1=O [Example 114, Ethyl 6-{4-[(benzylsulfonyl)carbamoyl]piperidin-1-yl}-5-cyano-2-[2-(2-oxopyrrolidin-1-yl)ethoxy]nicotinate] was tested. Which IC50 did it give?
**A.** The IC50 was 0.027 µM.

**Q.** How did the IC50 turn out when CCOC(=O)c1cc(C#N)c(N2CCC(C(=O)NS(=O)(=O)Cc3ccc(C)cc3)CC2)nc1CN1CCCCC1=O [Example 63, Ethyl 5-cyano-6-(4-{[(4-methylbenzyl)sulfonyl]carbamoyl}piperidin-1-yl)-2-[(2-oxopiperidin-1-yl)methyl]nicotinate] was run?
**A.** The IC50 was 0.014 µM.

**Q.** CC(C)OC(=O)c1cc(C#N)c(N2CCC(C(=O)NS(=O)(=O)CC3CCCCC3)CC2)nc1CN1CCCC1=O [Example 82, Isopropyl 5-cyano-6-(4-{[(cyclohexylmethyl)sulfonyl]carbamoyl}piperidin-1-yl)-2-[(2-oxopyrrolidin-1-yl)methyl]nicotinate] was tested. Which IC50 did it give?
**A.** The IC50 was 0.028 µM.

**Q.** With CCOC(=O)c1cc(Cl)c(N2CCC(C(=O)NS(=O)(=O)CC3CCCCC3)CC2)nc1CN1CCCC1=O [Example 94, Ethyl 5-chloro-6-(4-{[(cyclohexylmethyl)sulfonyl]carbamoyl}piperidin-1-yl)-2-[(2-oxopyrrolidin-1-yl)methyl]nicotinate] as the compound, how does the IC50 read?
**A.** The IC50 was 0.194 µM.

**Q.** With CCOC(=O)c1cc(C#N)c(N2CCC(C(=O)NS(=O)(=O)Cc3ccc(C(F)(F)F)cc3)CC2)nc1CN1CCCCC1=O [Example 59, Ethyl 5-cyano-2-[(2-oxopiperidin-1-yl)methyl]-6-[4-({[4-(trifluoromethyl)benzyl]sulfonyl}carbamoyl)piperidin-1-yl]nicotinate] as the compound, how does the IC50 read?
**A.** The IC50 was 0.029 µM.

Same assay, conditions: functional inhibition of 2-Me-S-ADP induced P2Y12 signalling; membranes from P2Y12 transfected CHO-cells; EC80 concentration of agonist; read-out: IC50

**Q.** With CCOC(=O)c1cc(C#N)c(N2CCC(C(=O)NS(=O)(=O)Cc3ccccc3)CC2)nc1CS(C)(=O)=O [Example 12, Ethyl 6-{4-[(benzylsulfonyl)carbamoyl]piperidin-1-yl}-5-cyano-2-[(methylsulfonyl)methyl]nicotinate] as the compound, how does the IC50 read?
**A.** The IC50 was 0.13 µM.
